Data as given in US20250101020A1, “SPIROCYCLIC LACTAM INHIBITORS” (Incyte Corporation, priority 2023, published 2025).
Structures can show the parent of a compound that is named as a salt.

What was measured:
[1] = target: pseudo-kinase domain (JH2) of human Wild Type JAK2 (Homo sapiens (Human), UniProt O60674, F794H/W659A/W777A); experiment: JAK2 LanthaScreen JH2-WT Binding Assay; settings: 50 nM tracer, 1 hour at 25° C.
Protocol: Example B. JAK2 LanthaScreen JH2-WT Binding Assay
(§1) JAK2 JH2-WT binding assay utilizes pseudo-kinase domain (JH2, amino-acids 536-812 with 3 surface mutations W659A, W777A, F794H) of human Wild Type JAK2 expressed as C-terminal His-Avi-tagged, biotinylated protein in a baculovirus expression system (BPS Bioscience, Catalog #79463). The assay was conducted in black 384-well polystyrene plates in a final reaction volume of 20 μL. JAK2 JH2-WT (0.145 nM) was incubated with compounds (100 nL serially diluted in DMSO) in the presence of 50 nM Fluorescent JAK2-JH2 Tracer (MedChem Express Catalog #HY-102055) and 0.25 nM Streptavidin-Tb cryptate (Cisbio Part #610SATLB) in assay buffer (50 mM Tris, pH=7.5, 10 mM MgCl2, 0.01% Brij-35, 0.1% BSA, 1 mM EGTA, 5% Glycerol and 5 mM DTT). Non-specific binding was accessed in the presence of 2 mM ATP. After incubation for 1 hour at 25° C., LanthaScreen signals were read on a PHERAstar FS plate reader (BMG LABTECH). Data was analyzed with IDBS XLfit and GraphPad Prism 5.0 software using a four parameter dose response curve to determine IC50 for each compound.

[2] = target: pseudo-kinase domain (JH2) of human V617F mutant JAK2 (Homo sapiens (Human), UniProt O60674, F794H/V617F/W659A/W777A); experiment: JAK2 LanthaScreen JH2-V617F Binding Assay; settings: 50 nM tracer, 1 hour at 25° C.
pseudo-kinase domain (JH2) of human V617F mutant JAK2, sequence (O60674 536-812 V617F/W659A/W777A/F794H): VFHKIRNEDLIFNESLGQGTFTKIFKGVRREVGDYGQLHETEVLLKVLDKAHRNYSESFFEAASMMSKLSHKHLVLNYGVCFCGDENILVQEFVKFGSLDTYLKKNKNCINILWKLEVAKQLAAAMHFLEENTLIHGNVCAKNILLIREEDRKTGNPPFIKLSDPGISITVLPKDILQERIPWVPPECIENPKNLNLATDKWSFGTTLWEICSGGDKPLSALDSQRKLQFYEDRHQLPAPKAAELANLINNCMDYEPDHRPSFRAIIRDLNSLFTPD
Protocol: Example C. JAK2 LanthaScreen JH2-V617F Binding Assay
as §1, with “JH2-V617F” for “JH2-WT”, “V617F mutant” for “Wild Type”, “#79498).” for “#79463).”, “JH2-V617F (0.26” for “JH2-WT (0.145”

[3] = target: T1, catalytic domain (JH1) of human JAK2 (Homo sapiens (Human), UniProt O60674); experiment: JAK2 HTRF Enzyme Activity Assay; format: biochemical; settings: ATP 30 μM; read-out: ENZ 30UMATP IC50
Protocol: Example D. JAK2 HTRF Enzyme Activity Assay
JAK2 enzyme activity assays utilize catalytic domain (JH1, amino acids 808-1132) of human JAK2 expressed as N-terminal His-tagged protein in a baculovirus expression system (BPS Bioscience, Catalog #40450). The assays was conducted in black 384-well polystyrene plates in a final reaction volume of 20 μL. JAK2 (0.015 nM) was incubated with compounds (100 nL serially diluted in DMSO) in the presence of ATP (30 μM or 1 mM) and 500 nM Biotin-labeled EQEDEPEGDYFEWLE (SEQ ID NO.: 1) peptide (BioSource International, custom synthesis) in assay buffer (50 mM Tris, pH=7.5, 10 mM MgCl2, 0.01% Brij-35, 0.1% BSA, 1 mM EGTA, 5% Glycerol and 5 mM DTT) for 60 minutes at 25° C. The reactions were stopped by the addition of 10 μL of detection buffer (50 mM Tris, pH 7.8, 0.5 mg/mL BSA, 150 mM NaCl), supplemented with EDTA, LANCE Eu-W1024 anti-phosphotyrosine (PY20), (PerkinElmer, Catalog #AD0067) and Streptavidin SureLight APC (PerkinElmer Catalog #CR130-100), for a final concentration of 15 mM, 1.5 nM and 75 nM, respectively. HTRF signals were read after 30 minutes incubation at room temperature on a PHERAstar FS plate reader (BMG LABTECH). Data was analyzed with IDBS XLfit and GraphPad Prism 5.0 software using a four parameter dose response curve to determine IC50 for each compound.
Target sequence in this assay (O60674 808-1132): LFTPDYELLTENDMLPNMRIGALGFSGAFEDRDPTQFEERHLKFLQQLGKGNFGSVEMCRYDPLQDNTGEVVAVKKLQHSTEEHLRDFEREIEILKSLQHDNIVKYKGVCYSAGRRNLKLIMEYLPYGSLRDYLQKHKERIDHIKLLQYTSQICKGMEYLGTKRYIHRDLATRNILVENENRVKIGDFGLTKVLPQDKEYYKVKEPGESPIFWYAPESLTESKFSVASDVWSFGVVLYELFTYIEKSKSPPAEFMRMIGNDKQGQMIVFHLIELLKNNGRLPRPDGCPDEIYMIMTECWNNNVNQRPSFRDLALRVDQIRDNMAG

[4] = target: T1, catalytic domain (JH1) of human JAK2; experiment: JAK2 LanthaScreen JH1 Binding Assay; settings: JAK2 JH1, 50 nM tracer, 2 hours at 25° C.
Protocol: Example A. JAK2 LanthaScreen JH1 Binding Assay
JAK2 JH1 binding assay utilizes catalytic domain (JH1, amino acids 826-1132) of human JAK2 expressed as N-terminal FLAG-tagged, biotinylated protein in a baculovirus expression system (Carna Biosciences, Product #08-445-20N). The assay was conducted in black 384-well polystyrene plates in a final reaction volume of 20 μL. JAK2 JH1 (1.5 nM) was incubated with compounds (100 nL serially diluted in DMSO) in the presence of 50 nM Fluorescent JAK2-JH1 Tracer and 0.5 nM Streptavidin-Tb cryptate (Cisbio Part #610SATLB) in assay buffer (50 mM Tris, pH=7.5, 10 mM MgCl2, 0.01% Brij-35, 0.1% BSA, 1 mM EGTA, 5% Glycerol and 5 mM DTT). Non-specific binding was accessed in the presence of 2 mM ATP. After incubation for 2 hours at 25° C., LanthaScreen signals were read on a PHERAstar FS plate reader (BMG LABTECH). Data was analyzed with IDBS XLfit and GraphPad Prism 5.0 software using a four parameter dose response curve to determine IC50 for each compound.
Target sequence in this assay (O60674 826-1132): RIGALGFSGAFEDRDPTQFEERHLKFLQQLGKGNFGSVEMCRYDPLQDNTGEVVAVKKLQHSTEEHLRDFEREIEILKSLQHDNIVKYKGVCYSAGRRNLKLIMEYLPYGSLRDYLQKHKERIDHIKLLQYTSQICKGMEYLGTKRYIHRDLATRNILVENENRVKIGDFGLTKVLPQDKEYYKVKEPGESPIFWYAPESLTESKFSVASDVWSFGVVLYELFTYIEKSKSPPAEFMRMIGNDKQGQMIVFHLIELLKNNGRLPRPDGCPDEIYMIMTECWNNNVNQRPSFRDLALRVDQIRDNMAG

pseudo-kinase domain (JH2) of human Wild Type JAK2, sequence (O60674 536-812 W659A/W777A/F794H): as the sequence (O60674 536-812 V617F/W659A/W777A/F794H) above, with F82V counted along it

SMILES	IC50 [1]	IC50 [2]	IC50 [3]	IC50 [4]
CCNC(=O)NC1CCC2(CC1)C(=O)N(C)c1cnc(Nc3ccc4cccc(C(F)(F)F)c4n3)cc12 (single isomer, unassigned) [Example 2, 1-Ethyl-3-((1r,4r)-1′-(methyl-d3)-2′-oxo-5′-((8-(trifluoromethyl)quinolin-2-yl)amino)-1′,2′-dihydrospiro[cyclohexane-1,3′-pyrrolo[2,3-c]pyridin]-4-yl)urea, trifluoroacetate salt]	≤ 100 nM	–	–	–
[2H]C([2H])([2H])N1C(=O)C2(CCC(NC(=O)NCC)CC2)c2cc(Nc3ccc4cccc(C(F)(F)F)c4n3)ncc21 (single isomer, unassigned) [Example 1, 1-Ethyl-3-((1s,4s)-1′-(methyl-d3)-2′-oxo-5′-((8-(trifluoromethyl)quinolin-2-yl)amino)-1′,2′-dihydrospiro[cyclohexane-1,3′-pyrrolo[2,3-c]pyridin]-4-yl)urea, trifluoroacetate salt]	≤ 100 nM	–	–	–
[2H]C([2H])([2H])N1c2cnc(Nc3ccc4cccc(C(F)(F)F)c4n3)cc2[C@]2(C[C@@H](CNC(=O)OC)C2)C1=O [Example 3, Methyl (((1r,3r)-1′-(methyl-d3)-2′-oxo-5′-((8-(trifluoromethyl)quinolin-2-yl)amino)-1′,2′-dihydrospiro[cyclobutane-1,3′-pyrrolo[2,3-c]pyridin]-3-yl)methyl)carbamate, trifluoroacetate salt]	–	≤ 100 nM	> 2500 nM	–
[2H]C([2H])([2H])N1c2cnc(Nc3ccc4c(n3)c(-c3cnn(C(F)(F)F)c3)nn4C)cc2[C@]2(C[C@@H](CNC(=O)C3CC3)C2)C1=O [Example 7, N-(((1r,3r)-1′-(Methyl-d3)-5′-((1-methyl-3-(1-(trifluoromethyl)-1H-pyrazol-4-yl)-1H-pyrazolo[4,3-b]pyridin-5-yl)amino)-2′-oxo-1′,2′-dihydrospiro[cyclobutane-1,3′-pyrrolo[2,3-c]pyridin]-3-yl)methyl)cyclopropanecarboxamide, trifluoroacetate salt]	–	≤ 100 nM	> 2500 nM	–
[2H]C([2H])([2H])N1c2cnc(Nc3ccc4c(n3)c(-c3cnn(C(F)(F)F)c3)nn4C)cc2[C@]2(C[C@@H](CNC(=O)OC)C2)C1=O [Example 6, Methyl (((1r,3r)-1′-(methyl-d3)-5′-((1-methyl-3-(1-(trifluoromethyl)-1H-pyrazol-4-yl)-1H-pyrazolo[4,3-b]pyridin-5-yl)amino)-2′-oxo-1′,2′-dihydrospiro[cyclobutane-1,3′-pyrrolo[2,3-c]pyridin]-3-yl)methyl)carbamate, trifluoroacetate salt]	–	≤ 100 nM	> 2500 nM	–
[2H]C([2H])([2H])N1c2cnc(Nc3ccc4c(n3)c(-c3cnn(C(F)(F)F)c3)nn4C)cc2[C@]2(C[C@@H](CO)C2)C1=O [Example 5, (1r,3r)-3-(Hydroxymethyl)-1′-(methyl-d3)-5′-((1-methyl-3-(1-(trifluoromethyl)-1H-pyrazol-4-yl)-1H-pyrazolo[4,3-b]pyridin-5-yl)amino)spiro[cyclobutane-1,3′-pyrrolo[2,3-c]pyridin]-2′(1′H)-one, trifluoroacetate salt]	–	≤ 100 nM	> 2500 nM	–
CCNC(=O)NC1CCC2(CC1)C(=O)N(C)c1cnc(Nc3ccc4cccc(C(F)(F)F)c4n3)cc12 (single isomer, unassigned) [Example 1, 1-Ethyl-3-((1s,4s)-1′-(methyl-d3)-2′-oxo-5′-((8-(trifluoromethyl)quinolin-2-yl)amino)-1′,2′-dihydrospiro[cyclohexane-1,3′-pyrrolo[2,3-c]pyridin]-4-yl)urea, trifluoroacetate salt]	–	≤ 100 nM	> 2500 nM	> 2500 nM
[2H]C([2H])([2H])N1c2cnc(Nc3ccc4cccc(C(F)(F)F)c4n3)cc2[C@]2(C[C@@H](CNC(=O)C3CC3)C2)C1=O [Example 4, N-(((1r,3r)-1′-(Methyl-d3)-2′-oxo-5′-((8-(trifluoromethyl)quinolin-2-yl)amino)-1′,2′-dihydrospiro[cyclobutane-1,3′-pyrrolo[2,3-c]pyridin]-3-yl)methyl)cyclopropanecarboxamide, trifluoroacetate salt]	–	≤ 100 nM	> 2500 nM	–
